{"source": "patent US20100035297A1", "about": "“METHODS AND COMPOSITIONS FOR VASCULOGENIC POTENTIAL DETERMINATION” (INDIANA UNIVERSITY RESEARCH AND TECHNOLOGY CORPORATION, priority 2008, published 2010)", "assay_type_in_all_cases": "cell-based, human", "key": {"ASCs": {"tested_on": "ASCs", "assay": "hASC mitogenic response to individual growth factors", "conditions": "factor added to basal medium, 10 pg to 10 ng, 4 days", "description": "Evaluation of hASC Mitogenic Response to Individual Growth Factors: Freshly isolated ASCs were adhered on cell culture plastic for 2 days before harvesting attached cells with 0.05% trypsin/EDTA. Cells were seeded at 3×10^3 cells/cm^2 in 12-well plates and allowed to attach overnight in EBM-2/5% FBS medium, which was then replaced with EBM-2/5% FBS alone (control) or EBM-2/5% FBS supplemented with basic fibroblast growth factor (bFGF), epidermal growth factor (EGF), or platelet-derived growth factor (PDGF)-BB individually at final concentrations of 10 pg, 100 pg, 1 ng, or 10 ng each or the mixture of all of these, each at the specified concentration. Cells were cultured for 4 days, with a medium change after 48 hours, and then detached using 0.05% trypsin/EDTA, and viable cells were counted using a hemacytometer and trypan blue. Proliferation data are presented as the ratio of cells per well supplemented with growth factor to cells per well in control media."}, "[1]": {"tested_on": "vascular network formation by EC on ASC monolayer", "assay": "Vascular network formation (VNF) in EC-ASC co-culture", "conditions": "6 days", "description": "Medium with the same supplements were exchange at day 3. At day 6, wells with the co-cultures were fixed with methanol, stained for human CD31 antigen; 5-9 pictures/well at 4× were taken under fluorescent microscope and were analyzed for total tube length and branch points.\nCo-culture of EC and ASC: ASCs were plated on culture plastic at a density of 60×10^3 cells/cm^2 in EBM-2/5% FBS media. In most experiments, ASCs were allowed to attach to the plates for three hours and then ECs from the indicated sources were plated on the top of ASC monolayer at densities ranging from 625 to 10,000 cells/cm^2. Cells were cultured in EBM-2/5% FBS for six days with media change at day 3. In a separate set of experiments, ASCs at 60×10^3 cells/cm^2 and CBD-ECs at 5×10^3 cells/cm^2 were premixed in EBM-2/5% FBS prior to plating.\nIn experiments assessing the role of various factors on EC-ASC interactions, co-cultures were incubated for 6 days in EBM-2/5% FBS media supplemented with: (1) neutralizing IgGs to: VEGF (RnD Systems, 2 μg/ml), HGF (RnD Systems, 2 μg/ml) or corresponding control mouse and goat IgGs (RnD Systems); (2) 10 μM GM6001 (Millipore, Billerica, Mass.), an inhibitor of MMP activity with a wide range of activity; (3) 50 μM AG1296 (Alexis, San Diego, Calif.), an inhibitor of PDGF receptor β activity; (4) and DMSO, which was used to dilute GM6001 and AG1296, as a negative control. Test cultures were exposed to the varying media conditions for six days.\n(§1) Co-culture of ECs on ASC, NHDF and smooth muscle cell monolayers: Either ASCs, NHDFs, CASMCs, or AoSMCs were plated at a density of 60×10^3 cells/cm^2 in EBM-2/5% FBS media, three hours prior to overlaying them with 5×10^3 cells/cm^2 of CBD-ECs as previously described. The mixed cultures were incubated for six days with a routine media change at day 3. In experiments evaluating the effect of ASC conditioned media (ASC-CM) or added growth factors on vascular network formation, cells were cultured in EBM-2/5% FBS media that was either premixed with ASC-CM at a 1:1 ratio or supplemented with VEGF or HGF (10 ng/ml) as single growth factor controls. To generate ASC-CM, ASCs were grown to confluence in EGM-2mv in T75 flasks, followed by media replacement with EBM-2/5% FBS. After one day, 10 ml fresh EBM-2/5% FBS media was applied and removed after 72 hours conditioning. ASC-CM was collected, centrifuged at 300 g for five minutes, and supernatants frozen at 80° C. Cell number at the time of media collection was determined using hemocytometer."}, "EC+CASMC co-culture": {"tested_on": "EC+CASMC co-culture", "assay": "VNF by ECs co-cultured on CASMC monolayer", "conditions": "growth factor 10 ng/ml, 6 days; control 0.37±0.13", "description": "as §1"}, "EC+fibroblast co-culture": {"tested_on": "EC+fibroblast co-culture", "assay": "VNF by ECs co-cultured on fibroblast (NHDF) monolayer", "conditions": "growth factor 10 ng/ml, 6 days; control 0.54±0.1", "description": "as §1"}}, "data": [{"compound": "EGF: epidermal growth factor (NSDSECPLSHDGYCLHDGVCMYIEALDKYACNCVVGYIGERCQYRDLKWWELR; UniProt P01133 971-1023, looked up)", "values": [{"measurement": "effect on ASC proliferation", "setting": "ASCs", "result": "strong mitogenic effects"}]}, {"compound": "VEGF", "values": [{"measurement": "increase of total tube length", "setting": "[1]; EC-ASC co-culture, growth factor 10 ng/ml, vs control media", "result": 76, "unit": "%"}, {"measurement": "total tube length", "setting": "EC+CASMC co-culture", "result": "0.9±0.18", "unit": "mm/mm^2"}, {"measurement": "total tube length", "setting": "EC+fibroblast co-culture", "result": "3.2±0.4", "unit": "mm/mm^2"}]}, {"compound": "CNC(=O)[C@H](Cc1c[nH]c2ccccc12)NC(=O)[C@@H](CC(=O)NO)CC(C)C", "note": "[GM6001]", "values": [{"measurement": "total tubes length", "setting": "[1]; 10 μM, DMSO control 4.24±0.31", "result": "2.59±0.05", "unit": "mm/mm^2"}, {"measurement": "degree of network branching", "setting": "[1]; 10 μM, DMSO control 5.86±0.79", "result": "2.45±0.17", "unit": "per mm^2"}]}, {"compound": "HGF: hepatocyte growth factor, single growth factor supplement", "values": [{"measurement": "total tube length", "setting": "EC+CASMC co-culture", "result": "0.74±0.21", "unit": "mm/mm^2"}, {"measurement": "total tube length", "setting": "EC+fibroblast co-culture", "result": "1.0±0.02", "unit": "mm/mm^2"}]}, {"compound": "COc1cc2ncc(-c3ccccc3)nc2cc1OC", "note": "[AG1296]", "values": [{"measurement": "total tube length", "setting": "[1]; 50 μM, DMSO control 5.29±0.31", "result": "1.07±0.14", "unit": "mm/mm^2"}, {"measurement": "degree of network branching", "setting": "[1]; 50 μM, DMSO control 5.88±0.67", "result": "0.26±0.06", "unit": "branches/mm^2"}]}, {"compound": "bFGF: basic fibroblast growth factor", "values": [{"measurement": "effect on ASC proliferation", "setting": "ASCs", "result": "strong mitogenic effects"}]}]}
